In patent publication US20060223050A1, “Therapeutic platelets and methods” (The Regents of the University of California Office of …, priority 2003, published 2006):
Where “and” joins values, the source holds several entries; their conditions need not be identical. Identical values can stand only once. Values belong to the compound of their own block, whether it stands above or below them.

What was measured:
[1] = test system: erythrocyte membranes; experiment: FTIR membrane phase transitions of erythrocytes
[2] = test system: human platelets; experiment: Stability of platelets during trehalose incubation (microscopy, flow cytometric analysis); assay type: cell-based
Description: The uptake of trehalose is linear in the range from 0 to 30 mM external trehalose. The highest internal trehalose concentration is obtained with 50 mM external trehalose. At higher concentrations than 50 mM the internal trehalose concentration decreases again. Even when the loading buffer at these high trehalose concentrations is corrected for isotonicity by adjusting the salt concentration, the loading efficiency remains low. Platelets become swollen after 4 hours incubation in 75 mM trehalose.
The stability of the platelets during a 4 hours incubation period was studied using microscopy and flow cytometric analysis. […] No signs of microvesicle formation could be observed after 4 hours incubation, as can be judged by the stable relative proportion of microvesicle gated cells (less than 3%). The formation of microvesicles is usually considered as the first sign of platelet activation (Owners et al., Trans. Med. Rev., 8, 27-44, 1994). Characteristic antigens of platelet activation include: glycoprotein 53 (gp53, a lysosomal membrane marker), PECAM-1 (platelet endothelial cell adhesion molecule-1, an alpha granule constituent), and P-selection (an alpha granule membrane protein).

[3] = State diagram (glass transition temperature vs water content) by differential scanning calorimeter; assay type: physicochemical; conditions: FIG. 40, assuming sample temperature of −50° C.
From the text: In another embodiment of the invention, it has been discovered that protein alters the physical properties of a preservative solution. More specifically, it has been discovered that the protein albumin alters the physical properties of the oligosaccharide trehalose solution as broadly illustrated in FIG. 40, which are graphs representing state diagrams (e.g., glass transition temperature vs. water content) for trehalose:water mixtures and for trehalose-albumin(1/1, wt/wt):water mixtures. A state diagram is a measure of the glass transition temperatures (Tg) for the respective mixtures (i.e., the various preservative:water mixtures and the various preservative-protein:water mixtures). The state diagrams broadly illustrated in FIG. 40 were obtained by respectively freeze-drying trehalose alone and freeze-drying a 1:1 (wt:wt) trehalose:albumin solution, and then adding back known amounts of water to the respective freeze-dried solutions. The glass transition temperatures for the trehalose:water solution and for the trehalose/albumin:solution were measured by a differential scanning calorimeter with conventional methods.

[4] = test system: mesenchymal stem cells; experiment: Growth curves of mesenchymal stem cells with 90 mM trehalose; assay type: cell-based, human
Description: Growth Curves. MSCs were plated into 12-welled plates at approximately the same seeding density used for T-185 flasks in standard Osiris protocols (5900 cells/cm^2 with fluid volume of 0.189 mL/cm^2). Three wells for each condition at each time point were trypsinized and counted. Data for cells grown in the presence of trehalose were lost for the first two time points. FIG. 13 is a graph illustrating growth curves for the mesenchymal stem cells in the presence or absence of 90 mM trehalose with the open triangle data representing cells grown in standard medium for 24 hours, after which 90 mM trehalose was added.

[5] = test system: human platelets; experiment: Loading of platelets with trehalose (anthrone quantification); assay type: cell-based; conditions: 37° C., from 0 to 2 hours
Description: Washing of Platelets. Platelet concentrations were obtained from the Sacramento blood center or from volunteers in our laboratory. Platelet rich plasma was centrifuged for 8 minutes at 320×g to remove erythrocytes and leukocytes. The supernatant was pelleted and washed two times (480×g for 22 minutes, 480×g for 15 minutes) in buffer A (100 MM NaCl, 10 MM KCl, 10 mM EGTA, 10 mM imidazole, pH 6.8). Platelet counts were obtained on a Coulter counter T890 (Coulter, Inc., Miami, Fla.).
Loading of Platelets with Trehalose. Washed platelets in a concentration of 1-2 10^9 platelets/ml were incubated at various temperatures in the presence of 1-20 mg/ml trehalose. […] The amount of trehalose in the platelets was quantified using the anthrone reaction (Umbreit et al., Mamometric and Biochemical Techniques, 5th Edition, 1972). […] Then the samples were cooled on ice and the absorbance was measured at 620 nm on a Perkin Elmer spectrophotometer. The amount of platelet associated trehalose was determined using a standard curve of trehalose.
Quantification of Trehalose and LYCH Concentration. Uptake was calculated for each sample as micrograms of trehalose or LYCH per platelet. The internal trehalose concentration was calculated assuming a platelet radius of 1.2 μm and by assuming that 50% of the platelet volume is taken up by the cytosol (rest is membranes). […]

[6] = erythrocytes incubated 37° C. one hour with MβCD

Compound: CC(C)c1c(C(=O)Nc2ccccc2)c(-c2ccccc2)c(-c2ccc(F)cc2)n1CC[C@@H](O)C[C@@H](O)CC(=O)O [LIPITOR]
total wavenumber excursion ([1]; from −5 to 45° C., erythrocytes of a donor who used LIPITOR (other donors 0.8)): ~1.5 cm⁻¹

morphological changes ([2]; 4 hours at 37° C., 25 mM external trehalose): No morphological changes | platelet morphology ([2]; 4 hours incubation at 37° C. in 75 mM trehalose): swollen | relative proportion of microvesicle gated cells ([2]; 4 hours incubation, flow cytometry): less than 3% | water content at which sample enters the glassy state [3]: below 0.15 gram H2O/gram dry wt | effect on growth of the cells ([4]; after the third day): cell count started to drop significantly
Compound: OC[C@H]1O[C@H](O[C@H]2O[C@H](CO)[C@@H](O)[C@H](O)[C@H]2O)[C@H](O)[C@@H](O)[C@@H]1O [trehalose]
effect on growth of the cells ([4]; up to the third day): did not interfere with growth of the cells | trehalose uptake [5]: 2.8×10^−11 mol/m^2s

Compound: methyl-β-cyclodextrin [MβCD]
High Transition, Cooperativity [1, 6]: 0.091 ± 0.020 cm^−1/° C. | High Transition, Transition Temperature [1, 6]: 35.4 ± 1.5 °C | Low Transition, Cooperativity [1, 6]: 0.051 ± 0.004 cm^−1/° C. | Low Transition, Transition Temperature [1, 6]: 15.3 ± 0.8 °C | Middle Transition, Cooperativity [1, 6]: 0.095 ± 0.015 cm^−1/° C. | Middle Transition, Transition Temperature [1, 6]: 25 °C and 26.0 ± 0.8 °C | wavenumber excursion of lipid CH2 band ([1]; from −5 to 45° C., after cholesterol removal (control 0.7)): 2.9 cm⁻¹
